Experimental data published in patent US20250026778A1 (TIUMBIO CO., LTD., priority 2021, published 2025).

molecular target: T1, his-galectin-3 (Homo sapiens, UniProt P17931); test: TR-FRET assay (in vitro galectin-3 binding inhibitory activity test); details: Table 1; compound at 20 μM; 60 nM his-galectin-3, 15 nM biotin-ASF; read-out: % Inhibitory activity (at 20 μM)
T1 construct: purchased Abcam
How it was run: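 Compound is premixed with his-galectin-3 (60 nM final), then biotin-ASF (15 nM), Tb anti-His antibody (2 nM) and streptavidin-d2 (20 nM) are added. After at least 3.5 hours at RT in HEPES/NaCl buffer with Tween 20 and BSA, TR-FRET is read at 615/665 nm. DMSO serves as the uninhibited control, ASF omission as background.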

T1 sequence (P17931 whole entry): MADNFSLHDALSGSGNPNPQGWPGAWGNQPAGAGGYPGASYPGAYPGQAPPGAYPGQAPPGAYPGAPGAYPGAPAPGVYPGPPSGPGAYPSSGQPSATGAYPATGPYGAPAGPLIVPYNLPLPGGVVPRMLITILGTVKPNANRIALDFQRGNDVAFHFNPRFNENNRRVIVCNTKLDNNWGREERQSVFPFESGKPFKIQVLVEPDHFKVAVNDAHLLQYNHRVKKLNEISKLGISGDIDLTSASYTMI

Row | SMILES | inhibition at 20 µM [%]
1 | O=C(N[C@@H]1CCO[C@]12O[C@H](CO)[C@H](O)[C@H](n1cc(-c3cc(F)c(F)c(F)c3)nn1)[C@H]2O)c1ccc2ccccc2c1 [Compound A129, N-((4R,5S,7R,8R,9S,10R)-8,10-dihydroxy-7-(hydroxymethyl)-9-(4-(3,4,5-trifluorophenyl)-1H-1,2,3-triazol-1-yl)-1,6-dioxaspiro[4.5]decan-4-yl)-2-naphthamide] | 50 to 75
2 | O=C(N[C@@H]1CCO[C@]12O[C@H](CO)[C@H](O)[C@H](n1cc(-c3cc(F)c(F)c(F)c3)nn1)[C@H]2O)c1cccc(Oc2ccccc2)c1 [Compound A130, N-((4R,5S,7R,8R,9S,10R)-8,10-dihydroxy-7-(hydroxymethyl)-9-(4-(3,4,5-trifluorophenyl)-1H-1,2,3-triazol-1-yl)-1,6-dioxaspiro[4.5]decan-4-yl)-3-phenoxybenzamide] | 50 to 75
3 | O=C(N[C@@H]1CCO[C@]12O[C@H](CO)[C@H](O)[C@H](n1cc(-c3cc(F)c(F)c(F)c3)nn1)[C@H]2O)c1ccc(-c2ccccc2)cc1 [Compound A131, N-((4R,5S,7R,8R,9S,10R)-8,10-dihydroxy-7-(hydroxymethyl)-9-(4-(3,4,5-trifluorophenyl)-1H-1,2,3-triazol-1-yl)-1,6-dioxaspiro[4.5]decan-4-yl)-[1.1′ biphenyl]-4-carboxamide] | < 25
4 | COc1cccc(CN[C@@H]2CCO[C@]23O[C@H](CO)[C@H](O)[C@H](n2cc(-c4cc(F)c(F)c(F)c4)nn2)[C@H]3O)c1O [Compound A132, (4R,5S,7R,8R,9S,10R)-4-((2,3-hydroxy-3-methoxybenzyl)amino)-7-(hydroxymethyl)-9-(4-(3,4,5-trifluorophenyl)-1H-1,2,3-triazol-1-yl)-1,6-dioxaspiro[4.5]decane-8,10-diol] | 25 to 50
5 | O=C(N[C@@H]1CCO[C@]12O[C@H](CO)[C@H](O)[C@H](n1cc(-c3cc(F)c(F)c(F)c3)nn1)[C@H]2O)c1cccc2ccccc12 [Compound A133, N-((4R,5S,7R,8R,9S,10R)-8,10-dihydroxy-7-(hydroxymethyl)-9-(4-(3,4,5-trifluorophenyl)-1H-1,2,3-triazol-1-yl)-1,6-dioxaspiro[4.5]decan-4-yl)-1-naphthamide] | > 75
6 | O=C(N[C@@H]1CCO[C@]12O[C@H](CO)[C@H](O)[C@H](n1cc(-c3cc(F)c(F)c(F)c3)nn1)[C@H]2O)c1cccc(-c2ccccc2)c1 [Compound A134, N-((4R,5S,7R,8R,9S,10R)-8,10-dihydroxy-7-(hydroxymethyl)-9-(4-(3,4,5-trifluorophenyl)-1H-1,2,3-triazol-1-yl)-1,6-dioxaspiro[4.5]decan-4-yl)-[1.1′ biphenyl]-3-carboxamide] | > 75
7 | O=C(Cc1ccc(-c2ccccc2)cc1)N[C@@H]1CCO[C@]12O[C@H](CO)[C@H](O)[C@H](n1cc(-c3cc(F)c(F)c(F)c3)nn1)[C@H]2O [Compound A135, 2-([1,1′-biphenyl]-4-yl)-N-((4R,5S,7R,8R,9S,10R)-8,10-dihydroxy-7-(hydroxymethyl)-9-(4-(3,4,5-trifluorophenyl)-1H-1,2,3-triazol-1-yl)-1,6-dioxaspiro[4.5]decan-4-yl)acetamide] | < 25
8 | O=C(Cc1cccc(C(F)(F)F)c1)N[C@@H]1CCO[C@]12O[C@H](CO)[C@H](O)[C@H](n1cc(-c3cc(F)c(F)c(F)c3)nn1)[C@H]2O [Compound A136, N-((4R,5S,7R,8R,9S,10R)-8,10-dihydroxy-7-(hydroxymethyl)-9-(4-(3,4,5-trifluorophenyl)-1H-1,2,3-triazol-1-yl)-1,6-dioxaspiro[4.5]decan-4-yl)-2-(3-(trifluoromethyl)phenyl)acetamide] | > 75
9 | CC(C(=O)N[C@@H]1CCO[C@]12O[C@H](CO)[C@H](O)[C@H](n1cc(-c3cc(F)c(F)c(F)c3)nn1)[C@H]2O)c1ccccc1 (stereo partly drawn) [Compound A137, N-((4R,5S,7R,8R,9S,10R)-8,10-dihydroxy-7-(hydroxymethyl)-9-(4-(3,4,5-trifluorophenyl)-1H-1,2,3-triazol-1-yl)-1,6-dioxaspiro[4.5]decan-4-yl)-2-phenylpropanamide] | 50 to 75
10 | O=C(c1ccccc1)N1CCC[C@]2(C1)O[C@H](CO)[C@H](O)[C@H](n1cc(-c3cc(F)c(F)c(F)c3)nn1)[C@H]2O [Compound A138, ((2R,3R,4S,5R,6R)-3,5-dihydroxy-2-(hydroxymethyl)-4-(4-(3,4,5-trifluorophenyl)-1H-1,2,3-triazol-1-yl)-1-oxa-8-azaspiro[5.5]undecan-8-yl)(phenyl)methanone] | < 25
11 | COc1cccc(CC(=O)N2CCC[C@]3(C2)O[C@H](CO)[C@H](O)[C@H](n2cc(-c4cc(F)c(F)c(F)c4)nn2)[C@H]3O)c1 [Compound A140, 1-((2R,3R,4S,5R,6R)-3,5-dihydroxy-2-(hydroxymethyl)-4-(4-(3,4,5-trifluorophenyl)-1H-1,2,3-triazol-1-yl)-1-oxa-8-azaspiro[5.5]undecan-8-yl)-2-(3-methoxyphenyl)ethanone] | < 25
12 | OC[C@H]1O[C@@]2(CCCN(Cc3cccc(Cl)c3)C2)[C@H](O)[C@@H](n2cc(-c3cc(F)c(F)c(F)c3)nn2)[C@H]1O [Compound A143, (2R,3R,4S,5R,6R)-8-(3-chlorobenzyl)-2-(hydroxymethyl)-4-(4-(3,4,5-trifluorophenyl)-1H-1,2,3-triazol-1-yl)-1-oxa-8-azaspiro[5.5]undecane-3,5-diol] | < 25
13 | O=C(c1cccnc1)N1CCC[C@]2(C1)O[C@H](CO)[C@H](O)[C@H](n1cc(-c3cc(F)c(F)c(F)c3)nn1)[C@H]2O [Compound A144, ((2R,3R,4S,5R,6R)-3,5-dihydroxy-2-(hydroxymethyl)-4-(4-(3,4,5-trifluorophenyl)-1H-1,2,3-triazol-1-yl)-1-oxa-8-azaspiro[5.5]undecan-8-yl)(pyridin-3-yl)methanone] | < 25
14 | O=C(N[C@@H]1CCO[C@]12O[C@H](CO)[C@H](O)[C@H](n1cc(-c3cc(F)c(F)c(F)c3)nn1)[C@H]2O)C(F)(F)c1ccccc1 [Compound A147, N-((4R,5S,7R,8R,9S,10R)-8,10-dihydroxy-7-(hydroxymethyl)-9-(4-(3,4,5-trifluorophenyl)-1H-1,2,3-triazol-1-yl)-1,6-dioxaspiro[4.5]decan-4-yl)-2,2-difluoro-2-phenylacetamide] | < 25
15 | O=C(Cc1ccc(Oc2ccccc2)cc1)N[C@@H]1CCO[C@]12O[C@H](CO)[C@H](O)[C@H](n1cc(-c3cc(F)c(F)c(F)c3)nn1)[C@H]2O [Compound A148, N-((4R,5S,7R,8R,9S,10R)-8,10-dihydroxy-7-(hydroxymethyl)-9-(4-(3,4,5-trifluorophenyl)-1H-1,2,3-triazol-1-yl)-1,6-dioxaspiro[4.5]decan-4-yl)-2-(4-phenoxyphenyl)acetamide] | 25 to 50
16 | O=C(N[C@@H]1CCO[C@]12O[C@H](CO)[C@H](O)[C@H](n1cc(-c3cc(F)c(F)c(F)c3)nn1)[C@H]2O)c1ccc2cc(Cl)ccc2c1 [Compound A149, 6-chloro-N-((4R,5S,7R,8R,9S,10R)-8,10-dihydroxy-7-(hydroxymethyl)-9-(4-(3,4,5-trifluorophenyl)-1H-1,2,3-triazol-1-yl)-1,6-dioxaspiro[4.5]decan-4-yl)-2-naphthamide] | 50 to 75

same assay, conditions: Table 3, found values; compound at 20 μM; 60 nM his-galectin-3, 15 nM biotin-ASF; read-out: % Inhibitory activity (at 20 μM)

Row | SMILES | inhibition at 20 µM [%]
17 | O=C(N[C@@H]1CCO[C@]12O[C@H](CO)[C@H](O)[C@H](n1cc(-c3cc(F)c(F)c(F)c3)nn1)[C@H]2O)c1cccc(Oc2ccccc2)c1 [Compound A130, N-((4R,5S,7R,8R,9S,10R)-8,10-dihydroxy-7-(hydroxymethyl)-9-(4-(3,4,5-trifluorophenyl)-1H-1,2,3-triazol-1-yl)-1,6-dioxaspiro[4.5]decan-4-yl)-3-phenoxybenzamide] | 56.6

same assay, conditions: read-out: % Inhibitory activity (at 20 μM), Table 1; compound at 20 μM; 60 nM his-galectin-3, 15 nM biotin-ASF

Row | SMILES | inhibition at 20 µM [%]
18 | O=C(Cc1cccc(Cl)c1)N1CCC[C@]2(C1)O[C@H](CO)[C@H](O)[C@H](n1cc(-c3cc(F)c(F)c(F)c3)nn1)[C@H]2O [Compound A139, 2-(3-chlorophenyl)-1-((2R,3R,4S,5R,6R)-3,5-dihydroxy-2-(hydroxymethyl)-4-(4-(3,4,5-trifluorophenyl)-1H-1,2,3-triazol-1-yl)-1-oxa-8-azaspiro[5.5]undecan-8-yl)ethanone] | < 25
19 | OC[C@H]1O[C@@]2(CCCN(Cc3ccccc3)C2)[C@H](O)[C@@H](n2cc(-c3cc(F)c(F)c(F)c3)nn2)[C@H]1O [Compound A141, (2R,3R,4S,5R,6R)-8-benzyl-2-(hydroxymethyl)-4-(4-(3,4,5-trifluorophenyl)-1H-1,2,3-triazol-1-yl)-1-oxa-8-azaspiro[5.5]undecane-3,5-diol] | < 25
20 | OC[C@H]1O[C@@]2(CCCN(Cc3cccnc3)C2)[C@H](O)[C@@H](n2cc(-c3cc(F)c(F)c(F)c3)nn2)[C@H]1O [Compound A142, (2R,3R,4S,5R,6R)-2-(hydroxymethyl)-8-(pyridin-3-ylmethyl)-4-(4-(3,4,5-trifluorophenyl)-1H-1,2,3-triazol-1-yl)-1-oxa-8-azaspiro[5.5]undecane-3,5-diol] | < 25
21 | O=C(c1cccc(Cl)c1)N1CCC[C@]2(C1)O[C@H](CO)[C@H](O)[C@H](n1cc(-c3cc(F)c(F)c(F)c3)nn1)[C@H]2O [Compound A145, (3-chlorophenyl)((2R,3R,4S,5R,6R)-3,5-dihydroxy-2-(hydroxymethyl)-4-(4-(3,4,5-trifluorophenyl)-1H-1,2,3-triazol-1-yl)-1-oxa-8-azaspiro[5.5]undecan-8-yl)methanone] | < 25
22 | O=C(Cc1ccccc1)N[C@@H]1CCO[C@]12O[C@H](CO)[C@H](O)[C@H](n1cc(-c3cc(F)c(F)c(F)c3)nn1)[C@H]2O [Compound A146, N-((4R,5S,7R,8R,9S,10R)-8,10-dihydroxy-7-(hydroxymethyl)-9-(4-(3,4,5-trifluorophenyl)-1H-1,2,3-triazol-1-yl)-1,6-dioxaspiro[4.5]decan-4-yl)-2-phenylacetamide] | 25 to 50

same assay, conditions: read-out: % Inhibitory activity (at 20 μM), Table 3, found values; compound at 20 μM; 60 nM his-galectin-3, 15 nM biotin-ASF

Row | SMILES | inhibition at 20 µM [%]
23 | O=C(Cc1ccccc1)N[C@@H]1CCO[C@]12O[C@H](CO)[C@H](O)[C@H](n1cc(-c3cc(F)c(F)c(F)c3)nn1)[C@H]2O [Compound A146, N-((4R,5S,7R,8R,9S,10R)-8,10-dihydroxy-7-(hydroxymethyl)-9-(4-(3,4,5-trifluorophenyl)-1H-1,2,3-triazol-1-yl)-1,6-dioxaspiro[4.5]decan-4-yl)-2-phenylacetamide] | 40.7
